{"source": "patent US10640468B2", "about": "“1-(4-(2-((1-(3,4-difluorophenyl)-1H-pyrazol-3-Yl)methoxy)ethyl)piperazin-1- Yl)ethanone salts” (ESTEVE PHARMACEUTICALS S.A., priority 2015, dated 2020)", "key": {"[1]": {"experiment": "Thermodynamic solubility at pH 7.4", "assay_type": "physicochemical", "conditions": "for solubility thermodynamic at 24 h: phosphate buffer, 25 °C, pH 7.4, aqueous buffer, thermodynamic from solid", "experimental": "General protocol for thermodynamic solubility at pH 7.4 and pH 2 are described. • A) Thermodynamic Solubility at pH 7.4\nPhosphate buffer at pH 7.4 (25 mM) was prepared as follows:\nA solution 25 mM of Na2HPO4.12H2O (for 1 L of water, weight 8.96 g) was prepared\nA solution 25 mM de KH2PO4 (for 1 L of water weight 3.4 g) was prepared.\nDisodium phosphate solution (812 mL) and potassium phosphate (182 mL) solution were mixed and pH checked to be 7.4.\nEquipment • Precision analytical balance Mettler Toledo AT20. • Analytical balance Mettler Toledo PJ300. • Liquid chromatograph Waters Alliance 2695. • Stirrer Thermomixer Control of Eppendorf a 25° C. y 1250 rpm • pHmeter with combined semi-micro electrode.\nAround 4 mg of compound in an HPLC vial (by duplicate) was dissolved in 1 mL of buffer solution. After stirring in Thermomixer Comfort system for 24 hours at 25° C., in order to achieve thermodynamic equilibrium, solution was centrifuged at 3000 rpm for 15 minutes.\nThe resulting upper layer was collected with a glass pipette and transferred to the HPLC vials in order to inject them (10 μL) directly to the HPLC instrument.\nStandards were made in methanol to ensure overall compound solubility. Preparation of standard calibrators is illustrated below:\nSol.A: 4 mg in 1 mL methanol (4000 μg/mL)\nSol.B: 0.5 mL Sol.A to 5 mL with methanol (400 μg/mL)\nSol.C: 1 mL Sol.B to 10 mL with methanol (40 μg/mL)\nSol.D: 5 mL […] to 50 mL with methanol (4 μg/mL)\nSol.E: 4 mL Sol.D to 10 mL with methanol (1.6 μg/mL)\nCalibration curve was created through 10 μL injection of standards, beginning with the more diluted standard. Blanks were also injected, for checking the absence of contamination.\n10 μl of test substance were injected, by duplicate, and the average peak area interpolated in the calibration curve (see Tables Examples below).\nChromatographic Conditions • Column: XBridge C18 (or similar) 2.5 μm 4.6×50 mm • Temperature: 35° C. • Mobile phase: ACN/ammonium bicarbonate 10 mM. • Gradient: 0-3.5 min: from 15% CAN to 95% CAN • 3.5-5 min: 95% ACN • 5-6 min: 95 a 15% ACN • 6-8 min: 15% ACN • Flow: 1.5 mL/min • Detection: around the maximum UV wavelength. • B) Thermodynamic Solubility at pH 2"}, "[2]": {"experiment": "Pharmacokinetics after single oral administration to male Wistar rat", "assay_type": "in vivo", "experimental": "The pharmacokinetics of Example 1 and 2 were tested using the following protocol:\nMale Wistar rats weighing 250 to 300 g (±20) supplied by Harlan were used. Water and food was available ad libitum throughout the study.\nAdministration and Sample Collection\nTwo rats (R1 and R2) were used in the pharmacokinetic oral studies.\nA single dose of tested compound was administered by oral gavage [10 mg/kg as free base (Example 0)] in 0.5% hydroxypropyl methylcellulose (1 mg/ml). From each rat, serial blood samples were collected at 15 and 30 min, 1, 2, 3, 5, 7 and 24 h.\nBlood was collected from the saphenous veins into heparinized tubes. Plasma was obtained by blood centrifugation at 4° C. and 2280×g for 10 min and kept at −80° C. until analysis.\nTested compound concentration in plasma samples was determined by least-squares linear regression using a ten-point calibration curve. The calibration curve was prepared in blank plasma from a working solution of 1 mg/ml in DMSO.\nSamples were thawed at room temperature on the day of analysis. After plasma protein precipitation of samples and calibration standards with acetonitrile (1:4.3; v/v), the mixture was vortexed and centrifuged (4° C. and 16090×g for 10 min).\nTested compound plasma concentrations were determined by high performance liquid chromatography-triple quadrupole mass spectrometry (HPLC-MS/MS) through the following method:\nColumn: Atlantis® T3 column (2.1×100 mm, 3 μm) (Waters).\nMobile phase: A: 0.0155% Formic water • B: 0.0155% Formic Acetonitrile\nAutosampler wash: Solvent 1:Acetonitrile • Solvent 2: 5% Acetonitrile+95% Water\nStandard pharmacokinetic parameters, such as area under the curve (AUC), peak plasma concentration (Cmax), time to peak concentration (tmax), oral bioavailability (F), total plasma clearance (Cl), volume of distribution at steady-state (Vss), mean residence time (MRT) and terminal half-life (t1/2), were determined by non-compartmental analysis of the plasma concentration-time curves (Phoenix v. 6.2.1.51, Pharsight, C A)."}, "[3]": {"conditions": "mean of 2 rats, 10 mg/kg oral, hydrochloride, 10 mg/kg"}}, "note": "Values joined by “and” are separate entries in the source; they are usually repeats but may differ in a detail not shown here. Equal values may be shown once. Where a name gives a salt, the structure may show the parent alone. Read-outs that look alike come from different tables or passages of the source.", "data": [{"smiles": "CC(=O)N1CCN(CCOCc2ccn(-c3ccc(F)c(F)c3)n2)CC1", "note": "[Example 1, hydrochloride]", "values": [{"measurement": "Conc.", "setting": "[1]; pH 7.4, single HPLC injections of duplicate vials, hydrochloride", "value": "3928 µg/mL and 3817.1 µg/mL and 4301.5 µg/mL and 4345.3 µg/mL"}, {"measurement": "solubility thermodynamic at 24 h", "setting": "[1]; pH 7.4, mean of 4 injections, read-out: Conc. Mean", "value": 4100, "unit": "µg/mL"}, {"measurement": "solubility thermodynamic at 24 h", "setting": "[1]; pH=7.4, 24 hours at 25° C., completely dissolved, read-out: thermodynamic solubility", "value": "> 4000", "unit": "µg/mL"}, {"measurement": "F", "setting": "[2]; animal 1, 10 mg/kg oral, mean AUC after i.v. administration used for calculation, hydrochloride", "value": 66, "unit": "%"}, {"measurement": "F", "setting": "[2]; animal 2, 10 mg/kg oral, mean AUC after i.v. administration used for calculation, hydrochloride", "value": 53, "unit": "%"}, {"measurement": "Vd", "setting": "[2]; male, Wistar, plasma, rat, total body water volume 0.6 l/kg, read-out: volume of distribution", "value": 1.2, "unit": "L/kg"}, {"measurement": "bioavailability", "setting": "[2]; male, Wistar, rat, plasma, oral, 10 mg/kg, mean of 2 rats, 10 mg/kg oral, mean AUC after i.v. administration used for calculation, read-out: F (oral bioavailability)", "value": 60, "unit": "%"}, {"measurement": "AUC", "setting": "[2]; male, Wistar, rat, plasma, po, 10 mg/kg, animal 1, 10 mg/kg oral, read-out: AUC", "value": 2950, "unit": "ng·h/mL"}, {"measurement": "Cmax", "setting": "[2]; male, Wistar, rat, plasma, po, 10 mg/kg, animal 1, 10 mg/kg oral, read-out: Cmax", "value": 1.31, "unit": "µg/mL"}, {"measurement": "half-life", "setting": "[2]; male, Wistar, rat, plasma, po, 10 mg/kg, animal 1, 10 mg/kg oral, read-out: t1/2 (converted)", "value": 54, "unit": "min"}, {"measurement": "tmax", "setting": "[2]; male, Wistar, rat, plasma, po, 10 mg/kg, animal 1, 10 mg/kg oral, read-out: tmax", "value": 15, "unit": "min"}, {"measurement": "AUC", "setting": "[2]; male, Wistar, rat, plasma, po, 10 mg/kg, animal 2, 10 mg/kg oral, read-out: AUC", "value": 2340, "unit": "ng·h/mL"}, {"measurement": "Cmax", "setting": "[2]; male, Wistar, rat, plasma, po, 10 mg/kg, animal 2, 10 mg/kg oral, read-out: Cmax", "value": 1.05, "unit": "µg/mL"}, {"measurement": "half-life", "setting": "[2]; male, Wistar, rat, plasma, po, 10 mg/kg, animal 2, 10 mg/kg oral, read-out: t1/2 (converted)", "value": 54, "unit": "min"}, {"measurement": "tmax", "setting": "[2]; male, Wistar, rat, plasma, po, 10 mg/kg, animal 2, 10 mg/kg oral, read-out: tmax", "value": 60, "unit": "min"}, {"measurement": "AUC", "setting": "[2]; male, Wistar, rat, plasma, po, 10 mg/kg, mean of 2 rats, 10 mg/kg oral, read-out: AUC", "value": "~2600", "unit": "ng·h/mL"}, {"measurement": "Cmax", "setting": "[2]; male, Wistar, rat, plasma, po, 10 mg/kg, mean of 2 rats, 10 mg/kg oral, read-out: Cmax (peak plasma concentration)", "value": "~1", "unit": "µg/mL"}, {"measurement": "half-life", "setting": "[2]; male, Wistar, rat, plasma, po, 10 mg/kg, mean of 2 rats, 10 mg/kg oral, read-out: t1/2 (terminal half-life)", "value": "< 60", "unit": "min"}, {"measurement": "tmax", "setting": "[2]; male, Wistar, rat, plasma, po, 10 mg/kg, mean of 2 rats, 10 mg/kg oral, read-out: tmax", "value": 36, "unit": "min"}, {"measurement": "concentration at 0.5 h", "setting": "[2]; male, Wistar, rat, plasma, po, 10 mg/kg, rat R1, 0.5 h, 10 mg/kg oral", "value": 1.3, "unit": "µg/mL"}, {"measurement": "concentration at 1 h", "setting": "[2]; male, Wistar, rat, plasma, po, 10 mg/kg, rat R1, 1 h, 10 mg/kg oral", "value": 1.07, "unit": "µg/mL"}, {"measurement": "concentration at 5 h", "setting": "[2]; male, Wistar, rat, plasma, po, 10 mg/kg, rat R1, 5 h, 10 mg/kg oral", "value": 0.0496, "unit": "µg/mL"}, {"measurement": "concentration at 0.5 h", "setting": "[2]; male, Wistar, rat, plasma, po, 10 mg/kg, rat R2, 0.5 h, 10 mg/kg oral", "value": 0.742, "unit": "µg/mL"}, {"measurement": "concentration at 1 h", "setting": "[2]; male, Wistar, rat, plasma, po, 10 mg/kg, rat R2, 1 h, 10 mg/kg oral", "value": 1.05, "unit": "µg/mL"}, {"measurement": "concentration at 5 h", "setting": "[2]; male, Wistar, rat, plasma, po, 10 mg/kg, rat R2, 5 h, 10 mg/kg oral", "value": 0.0469, "unit": "µg/mL"}, {"measurement": "concentration at 7 h", "setting": "[2]; male, Wistar, rat, plasma, po, 10 mg/kg, rat R2, 7 h, 10 mg/kg oral", "value": 0.0115, "unit": "µg/mL"}, {"measurement": "AUC", "setting": "[2]; [3]", "value": 2645, "unit": "ng·h/mL"}, {"measurement": "t1/2 (terminal half-life)", "setting": "[2]; [3]", "value": 54, "unit": "min"}, {"measurement": "tmax", "setting": "[2]; [3]", "value": 37.8, "unit": "min"}, {"measurement": "plasma clearance", "setting": "[2]; rat", "value": 70, "unit": "% liver blood flow"}, {"measurement": "Plasma concentration", "setting": "[2]; rat R1, 2 h, 10 mg/kg oral, hydrochloride, 10 mg/kg", "value": 0.7228, "unit": "µg/mL"}, {"measurement": "Plasma concentration", "setting": "[2]; rat R1, 3 h, 10 mg/kg oral, hydrochloride, 10 mg/kg", "value": 0.3231, "unit": "µg/mL"}, {"measurement": "Plasma concentration", "setting": "[2]; rat R1, 7 h, 10 mg/kg oral, hydrochloride, 10 mg/kg", "value": 0.0128, "unit": "µg/mL"}, {"measurement": "Plasma concentration", "setting": "[2]; rat R1, 24 h, 10 mg/kg oral, LLOQ 2 ng/ml", "value": "<lloq"}, {"measurement": "Plasma concentration", "setting": "[2]; rat R2, 2 h, 10 mg/kg oral, hydrochloride, 10 mg/kg", "value": 0.6739, "unit": "µg/mL"}, {"measurement": "Plasma concentration", "setting": "[2]; rat R2, 3 h, 10 mg/kg oral, hydrochloride, 10 mg/kg", "value": 0.2331, "unit": "µg/mL"}, {"measurement": "Plasma concentration", "setting": "[2]; rat R2, 24 h, 10 mg/kg oral, LLOQ 2 ng/ml", "value": "<lloq"}]}]}
